The values below come from patent US12685726B2, “Sulfoximines as inhibitors of NaV1.8” (Gruenenthal GmbH, priority 2022, dated 2026).

The assay deals with T1, human NaV 1.8 (Homo sapiens, UniProt Q9Y5Y9).
T1 construct: expressed in transfected cells; host or cells: HEK (recombinant cell line)
As to the kind of experiment: Automated whole-cell patch clamp (Qube384) voltage-clamp recordings of sodium currents in HEK-NaV1.8 cell line. In kind it is cell-based. The note with it: read-out: Potency category (human NaV 1.8 IC50). As to the method: Electrophysiology: Voltage-Clamp Recordings
The following NaV1.8 recombinant cell line was used for recordings: HEK-NaV1.8 (NM_006514.1) with b3 (NM_018400.3).
Sodium currents were measured using the patch clamp technique in the whole-cell configuration using the Qube384 (Sophion A/S, Copenhagen, Denmark) automated voltage clamp platform. “Multi hole” plates were used for the cell line expressing NaV1.8 while “single hole” plates were used for the recombinant cell lines expressing the other subtypes. Appropriate filters (for minimum seal resistance and minimum current size) and series resistance compensation (for high quality sodium channel recordings) were applied. Data was collected at ambient room temperature or 19° C.
The recording extracellular solution contained (in mM): NaCl 145 mM, KCl 4 mM, CaCl2 2 mM, MgCl2 1 mM, HEPES 10 mM, Glucose 10 mM, pH 7.4 (NaOH). The intracellular recording solution contained (in mM): CsF 120 mM, CsCl 20 mM, NaCl 10 mM, EGTA 10 mM, HEPES 10 mM, pH 7.2 (CsOH). Currents were recorded at 25 kHz sampling frequency and filtered at 5 kHz. Series resistance compensation was applied at 65%.
Vehicle (VEH) is the control condition where cells are exposed to 0.3% DMSO without compound. All runs include VEH controls being exposed to the same voltage protocols to assess non-compound related phenomena such as run down and then used to isolate compound dependent effects on currents.
To check for state-dependent inhibition, the following voltage-sequence was applied every 20 seconds:
From a resting membrane potential of −120 mV, the first test pulse (P1; 20 ms to −10 mV) was applied to check for channels in the Resting State followed by a brief recovery (100 ms to −120 mV), then holding the membrane voltage to V1/2 (4 seconds at voltage to obtain half the channel at Rest and half Inactivated) with a subsequent second test pulse (P2; 20 ms to −10 mV) to check for channels in the Inactivated State, followed by another brief recovery (20 ms to −120 mV) and a final third test pulse (P3; 20 ms to −10 mV) to check for recovered channels.
To check for frequency-dependent inhibition, a 10 Hz protocol and a 20 Hz protocol were applied; namely,
From a resting membrane potential of −120 mV, 40-pulses (10 ms to −10 mV) was applied at 10 Hz (at 100 ms between pulses) and then at 20 Hz (at 50 ms between pulses).
Each parameter was recorded (P1, P2, P3, P40 from 10 Hz and P40 from 20 Hz) during a control period (lasting 5 minutes) when establishing the baseline and during compound period (lasting ~12 minutes) when test compound (or vehicle) was applied. For each parameter, the value at the end of the compound period was normalized to the vehicle baseline; as follows
To adjust for any variance in the Na^+ current signal during the compound period (owing to cumulative inactivation independent of compound or shifts in biophysics over time), a dedicated segment of the recording wells in each 384 plate were dedicated to having only vehicle exposure. These vehicle-only recordings were used to correct for any apparent “run-up” or “run-down” in the experiment.
The adjusted inhibition was calculated as follows: […]
Percent inhibition was determined and IC50 values were calculated using a 4 parameter logistic model within XLFit Software (IDBS, Boston MA): F
[formula] where A and B are the maximal and minimum inhibition respectively, C is the IC50 concentration and D is the (Hill) slope.
(In patch-clamp work, channel activity is measured electrically.)

What is called IC50 is the concentration at which inhibition is half-maximal.

T1 sequence (Q9Y5Y9 whole entry): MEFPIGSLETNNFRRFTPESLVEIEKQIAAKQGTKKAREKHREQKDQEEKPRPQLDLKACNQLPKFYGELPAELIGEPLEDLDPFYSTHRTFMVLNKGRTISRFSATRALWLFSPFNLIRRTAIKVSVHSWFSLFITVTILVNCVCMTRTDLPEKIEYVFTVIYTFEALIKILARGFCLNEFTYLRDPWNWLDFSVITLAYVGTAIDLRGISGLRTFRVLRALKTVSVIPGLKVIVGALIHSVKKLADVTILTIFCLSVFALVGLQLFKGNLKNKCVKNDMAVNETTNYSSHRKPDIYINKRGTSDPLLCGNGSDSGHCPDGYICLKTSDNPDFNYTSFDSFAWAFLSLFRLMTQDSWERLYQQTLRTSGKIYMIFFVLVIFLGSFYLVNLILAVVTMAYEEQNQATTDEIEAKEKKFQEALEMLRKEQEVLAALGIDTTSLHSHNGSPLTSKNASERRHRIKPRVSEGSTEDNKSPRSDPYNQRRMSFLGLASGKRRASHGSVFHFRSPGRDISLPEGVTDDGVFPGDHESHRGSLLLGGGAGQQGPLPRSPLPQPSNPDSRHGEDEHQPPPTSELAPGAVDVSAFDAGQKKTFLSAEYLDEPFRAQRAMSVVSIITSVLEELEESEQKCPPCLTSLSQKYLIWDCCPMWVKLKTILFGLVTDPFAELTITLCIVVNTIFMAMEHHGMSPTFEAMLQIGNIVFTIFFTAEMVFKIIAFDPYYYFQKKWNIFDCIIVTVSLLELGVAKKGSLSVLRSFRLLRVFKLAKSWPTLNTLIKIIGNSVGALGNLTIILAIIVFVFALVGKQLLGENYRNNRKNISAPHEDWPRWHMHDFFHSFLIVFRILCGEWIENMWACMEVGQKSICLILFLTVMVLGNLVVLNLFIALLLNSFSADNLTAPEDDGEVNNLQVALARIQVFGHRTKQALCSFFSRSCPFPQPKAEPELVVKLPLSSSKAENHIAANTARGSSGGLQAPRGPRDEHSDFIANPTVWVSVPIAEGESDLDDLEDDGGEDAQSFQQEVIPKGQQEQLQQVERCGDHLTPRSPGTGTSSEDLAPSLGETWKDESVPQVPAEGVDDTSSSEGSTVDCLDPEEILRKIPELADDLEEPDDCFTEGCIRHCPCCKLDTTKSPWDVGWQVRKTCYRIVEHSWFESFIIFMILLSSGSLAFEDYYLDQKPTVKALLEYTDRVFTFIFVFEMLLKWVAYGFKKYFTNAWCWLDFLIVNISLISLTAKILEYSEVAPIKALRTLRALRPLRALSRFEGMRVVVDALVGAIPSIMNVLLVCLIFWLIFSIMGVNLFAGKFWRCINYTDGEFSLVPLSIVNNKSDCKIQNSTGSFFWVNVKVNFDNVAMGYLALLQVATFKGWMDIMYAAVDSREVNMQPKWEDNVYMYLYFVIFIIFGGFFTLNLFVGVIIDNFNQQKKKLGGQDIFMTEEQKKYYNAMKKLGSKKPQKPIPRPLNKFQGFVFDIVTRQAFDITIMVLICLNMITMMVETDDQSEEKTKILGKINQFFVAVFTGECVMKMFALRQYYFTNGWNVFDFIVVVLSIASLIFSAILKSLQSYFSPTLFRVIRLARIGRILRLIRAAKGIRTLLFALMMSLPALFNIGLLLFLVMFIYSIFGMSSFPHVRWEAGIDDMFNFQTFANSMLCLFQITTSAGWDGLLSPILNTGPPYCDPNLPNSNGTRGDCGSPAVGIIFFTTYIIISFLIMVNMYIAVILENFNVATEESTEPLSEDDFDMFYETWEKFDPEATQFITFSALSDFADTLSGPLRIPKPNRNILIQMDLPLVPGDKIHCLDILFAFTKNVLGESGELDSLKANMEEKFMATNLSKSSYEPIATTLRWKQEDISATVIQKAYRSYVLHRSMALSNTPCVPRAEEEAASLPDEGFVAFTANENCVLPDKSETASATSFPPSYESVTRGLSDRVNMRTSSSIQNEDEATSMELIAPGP

For the compound `CS(=N)(=O)c1cc(NC(=O)c2c(C(F)(F)F)c(C3CC3)nn2CC23CC(F)(C2)C3)ccn1` (single isomer, unassigned) [Example 25a, 3-cyclopropyl-1-((3-fluorobicyclo[1.1.1]pentan-1-yl)methyl)-N-(2-(S-methylsulfonimidoyl)pyridin-4-yl)-4-(trifluoromethyl)-1H-pyrazole-5-carboxamide], the concentration for half-maximal inhibition (IC50) was at most 0.1 µM.
Take `CS(=N)(=O)c1cc(NC(=O)c2c(C(F)(F)F)c(C3CC3)nn2CC23CC(F)(C2)C3)ccn1` (single isomer, unassigned) [Example 25b, 3-cyclopropyl-1-((3-fluorobicyclo[1.1.1]pentan-1-yl)methyl)-N-(2-(S-methylsulfonimidoyl)pyridin-4-yl)-4-(trifluoromethyl)-1H-pyrazole-5-carboxamide]: the IC50 fell in the range of 0.1 to 1 µM.
With `CS(=N)(=O)c1cc(NC(=O)c2c(C(F)(F)F)c(C3CC3)nn2CC2CC3(C2)CC(F)(F)C3)ccn1` (single isomer, unassigned) [Example 27a, 3-cyclopropyl-1-((6,6-difluorospiro[3.3]heptan-2-yl)methyl)-N-(2-(S-methylsulfonimidoyl)pyridin-4-yl)-4-(trifluoromethyl)-1H-pyrazole-5-carboxamide] the figure was at most 0.1 µM; with `CS(=N)(=O)c1cc(NC(=O)c2c(C(F)(F)F)c(C3CC3)nn2CC2CC3(C2)CC(F)(F)C3)ccn1` (single isomer, unassigned) [Example 27b, 3-cyclopropyl-1-((6,6-difluorospiro[3.3]heptan-2-yl)methyl)-N-(2-(S-methylsulfonimidoyl)pyridin-4-yl)-4-(trifluoromethyl)-1H-pyrazole-5-carboxamide], at most 0.1 µM; with `CC1(Cn2nc(C3CC3)c(C(F)(F)F)c2C(=O)Nc2ccnc(S(C)(=N)=O)c2)CCC(F)(F)C1` (single isomer, unassigned) [Example 29b, 3-Cyclopropyl-1-((3,3-difluoro-1-methylcyclopentyl)methyl)-N-(2-(S-methylsulfonimidoyl)pyridin-4-yl)-4-(trifluoromethyl)-1H-pyrazole-5-carboxamide], at most 0.1 µM.
For the compound `Cc1c(C(C)(F)F)nn(C[C@H]2C[C@@H](C(F)(F)F)C2)c1C(=O)Nc1ccnc(S(C)(=N)=O)c1` (single isomer, unassigned) [Example 31a, 3-(1,1-difluoroethyl)-4-methyl-N-(2-(S-methylsulfonimidoyl)pyridin-4-yl)-1-(((cis)-3-(trifluoromethyl)cyclobutyl)methyl)-1H-pyrazole-5-carboxamide], the half-maximal inhibitory concentration (IC50) is at most 0.1 µM.
Consider `Cc1c(C(C)(F)F)nn(C[C@H]2C[C@@H](C(F)(F)F)C2)c1C(=O)Nc1ccnc(S(C)(=N)=O)c1` (single isomer, unassigned) [Example 31b, 3-(1,1-difluoroethyl)-4-methyl-N-(2-(S-methylsulfonimidoyl)pyridin-4-yl)-1-(((cis)-3-(trifluoromethyl)cyclobutyl)methyl)-1H-pyrazole-5-carboxamide], for which the IC50 is at most 0.1 µM.
With `CN=S(C)(=O)c1cc(NC(=O)c2c(C)c(C(C)(F)F)nn2CC2(C)CC(F)(F)C2)ccn1` (single isomer, unassigned) [Example 34a, 1-((3,3-Difluoro-1-methylcyclobutyl)methyl)-3-(1,1-difluoroethyl)-N-(2-(N,S-dimethylsulfonimidoyl)pyridin-4-yl)-4-methyl-1H-pyrazole-5-carboxamide], the 50% inhibitory concentration (IC50) was at most 0.1 µM.
Consider `CN=S(C)(=O)c1cc(NC(=O)c2c(C)c(C(C)(F)F)nn2CC2(C)CC(F)(F)C2)ccn1` (single isomer, unassigned) [Example 34b, 1-((3,3-Difluoro-1-methylcyclobutyl)methyl)-3-(1,1-difluoroethyl)-N-(2-(N,S-dimethylsulfonimidoyl)pyridin-4-yl)-4-methyl-1H-pyrazole-5-carboxamide], for which the IC50 is at most 0.1 µM.
For the compound `CC1(Cn2nc(C3CC3)c(C(F)(F)F)c2C(=O)Nc2cccc(S(C)(=N)=O)c2)CC(F)(F)C1` (single isomer, unassigned) [Example 45a, 3-cyclopropyl-1-((3,3-difluoro-1-methylcyclobutyl)methyl)-N-(3-(S-methylsulfonimidoyl)phenyl)-4-(trifluoromethyl)-1H-pyrazole-5-carboxamide], the IC50 was at most 0.1 µM.
As for `CC1(Cn2nc(C3CC3)c(C(F)(F)F)c2C(=O)Nc2cccc(S(C)(=N)=O)c2)CC(F)(F)C1` (single isomer, unassigned) [Example 45b, 3-cyclopropyl-1-((3,3-difluoro-1-methylcyclobutyl)methyl)-N-(3-(S-methylsulfonimidoyl)phenyl)-4-(trifluoromethyl)-1H-pyrazole-5-carboxamide], the IC50 is at most 0.1 µM.
On to `CC1(Cn2nc(C3CC3)c(C(F)(F)F)c2C(=O)Nc2cncc(S(C)(=N)=O)c2)CC(F)(F)C1` (single isomer, unassigned) [Example 46a, 3-cyclopropyl-1-((3,3-difluoro-1-methylcyclobutyl)methyl)-N-(5-(S-methylsulfonimidoyl)pyridin-3-yl)-4-(trifluoromethyl)-1H-pyrazole-5-carboxamide], for which the IC50 is at most 0.1 µM.
With `CC1(Cn2nc(C3CC3)c(C(F)(F)F)c2C(=O)Nc2cncc(S(C)(=N)=O)c2)CC(F)(F)C1` (single isomer, unassigned) [Example 46b, 3-cyclopropyl-1-((3,3-difluoro-1-methylcyclobutyl)methyl)-N-(5-(S-methylsulfonimidoyl)pyridin-3-yl)-4-(trifluoromethyl)-1H-pyrazole-5-carboxamide] the figure was at most 0.1 µM; with `CC1(Cn2nc(C3CC3)c(C(F)(F)F)c2C(=O)Nc2cnnc(S(C)(=N)=O)c2)CC(F)(F)C1` (single isomer, unassigned) [Example 47a, 3-cyclopropyl-1-((3,3-difluoro-1-methylcyclobutyl)methyl)-N-(6-(S-methylsulfonimidoyl)pyridazin-4-yl)-4-(trifluoromethyl)-1H-pyrazole-5-carboxamide], at most 0.1 µM.
Consider `CC1(Cn2nc(C3CC3)c(C(F)(F)F)c2C(=O)Nc2cnnc(S(C)(=N)=O)c2)CC(F)(F)C1` (single isomer, unassigned) [Example 47b, 3-cyclopropyl-1-((3,3-difluoro-1-methylcyclobutyl)methyl)-N-(6-(S-methylsulfonimidoyl)pyridazin-4-yl)-4-(trifluoromethyl)-1H-pyrazole-5-carboxamide], for which the IC50 is at most 0.1 µM.
As to `CCS(=N)(=O)c1cc(NC(=O)c2c(C(F)(F)F)c(C3CC3)nn2CC2(C)CC(F)(F)C2)ccn1` (single isomer, unassigned) [Example 48a, 3-cyclopropyl-1-((3,3-difluoro-1-methylcyclobutyl)methyl)-N-(2-(ethylsulfonimidoyl)pyridin-4-yl)-4-(trifluoromethyl)-1H-pyrazole-5-carboxamide], the half-maximal inhibitory concentration (IC50) was at most 0.1 µM.
With `CCS(=N)(=O)c1cc(NC(=O)c2c(C(F)(F)F)c(C3CC3)nn2CC2(C)CC(F)(F)C2)ccn1` (single isomer, unassigned) [Example 48b, 3-cyclopropyl-1-((3,3-difluoro-1-methylcyclobutyl)methyl)-N-(2-(ethylsulfonimidoyl)pyridin-4-yl)-4-(trifluoromethyl)-1H-pyrazole-5-carboxamide] the figure was at most 0.1 µM.
Turning to `Cc1cc(NC(=O)c2c(C(F)(F)F)c(C3CC3)nn2CC2(C)CC(F)(F)C2)cc(S(C)(=N)=O)n1` (single isomer, unassigned) [Example 50a, 3-cyclopropyl-1-((3,3-difluoro-1-methylcyclobutyl)methyl)-N-(2-methyl-6-(S-methylsulfonimidoyl)pyridin-4-yl)-4-(trifluoromethyl)-1H-pyrazole-5-carboxamide], the IC50 was at most 0.1 µM.
